Data taken from patent US11491105B2, “Methods of treating microbial infections, including mastitis” (priority 2013, dated 2022).
In brackets after ≈: the same amount, converted by molar mass.

Legend:
[1] = system: ATCC 49775 reference strain; assay: Microdilution time-kill assay; format: cell-based, Staphylococcus; details: for growth (optical density) compared to growth control: over a 48 hour period
Experimental: Following assessment of MIC and MBC results, two compounds were chosen for analysis using microdilution time-kill assays, LP 1369 and LP 6315 and these were compared to ampicillin. Time-kill assays were performed according to the M26-A guidelines of the CLSI, with modifications. The test compounds and ampicillin were serial diluted in CAMHB across the rows of a 96 well plate and a bacterial suspension was prepared and added in the same manner as the MIC testing. […] The time points assessed were 0, 1, 2, 4, 8, 12, 24 and 48 hours after the addition of the bacterial suspension to the wells. Each test compound was tested in triplicate while ampicillin was tested in duplicate and this test was independently repeated. The bacterial strains used for the microdilution assays were chosen based on bactericidal activity evident during MBC testing. One strain from each of the categories of Staphylococcus in the isolate collection (methicillin-sensitive, methicillin resistant and coagulase negative) were selected as well as the ATCC reference strain for comparison. These strains were strains MSS 1, MSS 11, MRSA 9 and the ATCC 49775 reference strain.

[2] = system: ATCC 49775 reference strain; assay: Macrodilution time-kill assay; format: cell-based, Staphylococcus; details: 24 hours
Experimental: (§1) Due to the detection limit of the OD measurements, the time-kill assays were also performed in macrodilution. In 15 mL tubes, 9 mL volumes of the test compounds in CAMHB were prepared at one, four and eight times the MIC concentration and 9 mL volumes of ampicillin were prepared in CAMHB at one and four times the MIC. 1 mL of a 4 to 5×10^6 bacterial suspension (as prepared for MIC testing) was added to each of the tubes as well as a growth control tube containing only 9 mL of CAMHB. These tubes were incubated at 37° C. in an orbital shaker rotating at 100 rpm for 24 hours. At 0, 1, 4, 8, 12 and 24 hours after addition of the bacteria, 100 μL samples were removed from each tube and serial diluted in 9.1 g/L saline solution. The dilutions were then plated in duplicate onto plate count agar and incubated for 24 hours at 37° C. After incubation, viable counts were obtained from the number of colonies visible on the agar and these were used to calculate the number of CFU/mL at each time point. For the macrodilution time-kill analysis, only the ATCC 49775 reference strain and MRSA 9 were assessed in order to further investigate the antibacterial activity against methicillin-resistant strains. These macrodilution time-kill assays were independently repeated and bactericidal activity was defined as a ≥3 log decrease in the number of CFU/mL.

MRSA 9 = assay: Macrodilution time-kill assay; format: cell-based, Staphylococcus aureus; details: 24 hours
Experimental: as §1

bovine mastitis isolates = assay: Minimum inhibitory concentration assay (Example 3); format: cell-based; details: for MIC90: 51 Australian bovine mastitis isolates
Source text: Fifty-one dairy bovine mastitis isolates, encompassing a variety of bacterial species, were isolated from milk samples collected from dairy farms in rural South Australia by the University of Adelaide Ambulatory Clinic. Cellular morphology observed from Gram stains and catalase testing was used to differentiate Staphylococcus, Streptococcus and Corynebacterium species from Gram-negative species. Further biochemical testing including coagulase, Lancefield grouping, esculin hydrolysis and CAMP tests were used to identify the isolates to species level. Where biochemical test results were not definitive in identifying species, amplification and sequencing of the 16S ribosomal RNA gene was used to confirm the identity of the isolates.
Minimum inhibitory concentration tests were performed in the manner outlined by the CLSI (CLSI 2012). Test compounds were dispensed into a 96-well microtitre tray containing 90 μl of CAMHB in 90 μl volumes and serial diluted to obtain a concentration gradient ranging from 128 μg/ml to 0.25 μg/ml (see FIG. 24). For Streptococcus species, CAMHB was replaced with a CAMHB supplement with 4% lysed-sheep blood (4% LSB:CAMHB). 4% LSB:CAMHB was prepared by mixing 5 ml sheep blood to 5 ml milliQ water, and repeated freezing at −20° C. and thawing, followed by centrifuged for 20 min at 7000 rpm. 7 ml of the supernatant was removed and added to 93 mL of CAMB.
Bacterial suspensions were prepared by emulsifying fresh colonies obtained from an overnight culture on Sheep Blood Agar (SBA) in 4 mls of 9.1 g/l physiological saline to an optical density read at 600 nm (OD600nm) between 1.00 and 1.20. Standardised bacterial suspensions were diluted 1:10 in physiological saline and dispensed into all wells, excluding the negative control wells, in 10 μL volumes giving a final concentration of between 4×10^5 and 5×10^5 CFU/mL in each well. 96-well microtitre trays were incubated for 24 hours at 37° C. in 5% CO2 and then assessed both visually and using OD readings from a microplate reader at a wavelength of 600 nm. These tests were performed in duplicate and repeated if discrepancies in MIC values were observed between replicates.
The minimum inhibitory concentration (MIC) was determined to be the lowest concentration of antibiotic that prevented growth of bacteria both visually and using OD readings. MIC values were collated and used to determine the lowest concentration of each compound effective against 50% and 90% of isolates, known as the MIC50 and MIC90 respectively. These values as well as the range of MIC values were then used for direct comparisons between test compounds and for general comparisons with ampicillin.

[3] = system: Staphylococcus isolates (methicillin-sensitive and methicillin-resistant); assay: Minimum bactericidal concentration determination (Example 1); format: cell-based; details: for bactericidal activity (MBC testing): methicillin-sensitive and methicillin-resistant strains
Experimental: Following determination of the MIC using the 96 well MIC plate, a variation of the drop plate method was used to determine minimum bactericidal concentration (MBC) for each of the test compounds. These were analysed using samples taken from the MIC plate following incubation. For each compound, a 10 μL drop of each concentration equal to or higher than the MIC was pipetted onto Sheep Blood Agar in a clockwise manner (FIG. 3). Each concentration was pipetted in duplicate with duplicates being pipetted on an inner ring of drops. The plates were incubated at 37° C. overnight and assessed the following day for growth. The MBC was defined as the concentration at which 99.9% of colonies were eradicated, which was visually assessed by a lack of growth on the agar where the drop was placed. […] The MBC values for 50% and 90% of the isolates (MBC50 and MBC90) were calculated and assessed along with the MBC range in order to select compounds for further study.

Row | SMILES | growth at the MIC ([1]; at the MIC, 48 hours) | growth (optical density) compared to growth control [1] | bactericidal or bacteriostatic (>=3 log decrease in CFU/mL = bactericidal) ([2]; LP 6315: most concentrations) | bactericidal or bacteriostatic (>=3 log decrease in CFU/mL = bactericidal) (MRSA 9; LP 6315: most concentrations) | decrease in colonies (MRSA 9; four times the MIC) [log10] | MIC values (in words) (bovine mastitis isolates) | antibacterial activity against the bovine mastitis isolates (bovine mastitis isolates) | MIC90 (bovine mastitis isolates) [µg/mL] | strains against which bactericidal activity was exhibited more consistently [3] | MBC50 (rank among test compounds) ([3]; methicillin-resistant isolates) | bactericidal activity (MBC testing) [3] | decrease in the number of viable bacteria ([2]; all concentrations tested) [log10] | decrease in the number of viable bacteria (MRSA 9; all concentrations tested) [log10] | MBC50 (rank among test compounds) ([3]; methicillin-sensitive isolates)
1 | CO[C@@H]1[C@@H](OC)[C@H](C)[C@@](O)(CC(=O)O)O[C@H]1[C@H](C)[C@H]1O[C@@]2(CC[C@@](C)([C@H]3CC[C@@](C)([C@@H]4O[C@@H]([C@H]5O[C@](C)(O)[C@H](C)C[C@@H]5C)C[C@@H]4O[C@@H]4C[C@H](OC)[C@@H](OC)[C@H](C)O4)O3)O2)C[C@H](O)[C@H]1C.N [LP 6315, Maduramicin] | Some growth was observed after 48 hours | prevented the growth | bacteriostatic | bacteriostatic | > 3 | low MIC values | observed | 4 | methicillin-sensitive strains | lowest MBC50 values | some bactericidal activity in lower concentrations |  |  | 
2 | CC[C@@H](C(=O)[C@@H](C)[C@@H](O)[C@H](C)CCc1ccc(C)c(O)c1C(=O)O)[C@H]1O[C@](CC)([C@H]2CC[C@](O)(CC)[C@H](C)O2)C[C@@H]1C [LP 1369, Lasalocid] |  | prevented the growth |  |  |  | low MIC values | observed | 4 (≈ 6.77 µM) | methicillin-sensitive strains |  | some bactericidal activity in lower concentrations | < 3 | < 3 | lowest MBC50 values
